According to ChEMBL document CHEMBL5579877, “Design and Evaluation of 3-Phenyloxetane Derivative Agonists of the Glucagon-Like Peptide-1 Receptor” (J Med Chem, 2024):

Tests used:
[1] = target: Glucagon-like peptide 1 receptor (Homo sapiens, UniProt P43220); test: Agonist activity at human GLP-1R expressed in HEK293 cells assessed as accumulation of cAMP preincubated for 30 mins followed by d2-labeled cAMP addition and anti-cAMP cryptate addition measured after 60 mins by HTRF assay; assay type: functional, cell-based
Chain of Glucagon-like peptide 1 receptor (P43220 whole entry): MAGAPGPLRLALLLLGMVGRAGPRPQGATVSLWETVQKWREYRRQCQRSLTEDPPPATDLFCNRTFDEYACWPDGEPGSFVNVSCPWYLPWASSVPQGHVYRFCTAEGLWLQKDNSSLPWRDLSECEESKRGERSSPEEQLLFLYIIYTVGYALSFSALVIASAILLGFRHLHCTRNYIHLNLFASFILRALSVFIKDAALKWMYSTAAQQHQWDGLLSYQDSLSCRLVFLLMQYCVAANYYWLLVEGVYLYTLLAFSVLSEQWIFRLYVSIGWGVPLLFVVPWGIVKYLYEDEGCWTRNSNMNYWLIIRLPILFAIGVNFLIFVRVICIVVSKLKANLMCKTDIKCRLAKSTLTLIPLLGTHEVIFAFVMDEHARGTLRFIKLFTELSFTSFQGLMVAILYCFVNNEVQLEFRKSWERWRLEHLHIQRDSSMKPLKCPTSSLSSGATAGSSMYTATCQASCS

[2] = Metabolic stability in human liver microsomes assessed as half life at […] incubated upto 45 mins in presence of NADPH by LC-MS/MS analysis; assay type: ADME, Microsome

Row | Structure (SMILES) | EC50 [1] [nM] | half-life [2] [h]
1 | O=C(O)c1ccc2nc(CN3CCC(c4cccc(OCc5ccc(C6COC6)cc5F)n4)CC3)n(CC3(F)CCC3)c2c1 | 39 | 
2 | O=C(O)c1ccc2nc(CN3CCC(c4cccc(OCC5CCN(C6COC6)CC5)n4)CC3)n(C[C@@H]3CCO3)c2c1 | 33.2 | 
3 | CC(=O)c1ccc(COc2cccc(C3CCN(Cc4nc5ccc(C(=O)O)cc5n4C[C@@H]4CCO4)CC3)n2)c(F)c1 | 0.54 | 
4 | O=C(O)c1ccc2nc(CN3CCC(c4cccc(OCc5ccc(C6COC6)cc5Cl)n4)CC3)n(C[C@@H]3CCO3)c2c1 |  | 2.06
5 | CN1CCC(C(=O)c2ccc(COc3cccc(C4CCN(Cc5nc6ccc(C(=O)O)cc6n5C[C@@H]5CCO5)CC4)n3)c(F)c2)CC1 | > 1000 | 
6 | O=C(O)c1ccc2nc(CN3CCC(c4cccc(OCc5ccc(C6COC6)cn5)n4)CC3)n(C[C@@H]3CCO3)c2c1 |  | 0.717
7 | O=C(O)c1ccc2nc(CN3CCC(c4cccc(OCc5ccc(C6(O)COC6)cc5)n4)CC3)n(C[C@@H]3CCO3)c2c1 | 3.08 | 
8 | COc1cc(C2COC2)ccc1COc1cccc(C2CCN(Cc3nc4ccc(C(=O)O)cc4n3C[C@@H]3CCO3)CC2)n1 |  | 2.56
9 | O=C(O)c1ccc2nc(CN3CCC(c4cccc(OCc5ccc(C6COC6)cc5OCC(F)(F)F)n4)CC3)n(C[C@@H]3CCO3)c2c1 | 2.8 | 
10 | CCC(=O)c1ccc(COc2cccc(C3CCN(Cc4nc5ccc(C(=O)O)cc5n4C[C@@H]4CCO4)CC3)n2)c(F)c1 | 0.95 | 
11 | O=C(O)c1ccc2nc(CN3CCC(c4cccc(OCc5ccc(C6(F)COC6)cc5)n4)CC3)n(C[C@@H]3CCO3)c2c1 | 0.08 | 
12 | N#CCC1(n2c(CC3CCC(c4cccc(OCc5ccc(C6COC6)cc5F)n4)CC3)nc3ccc(C(=O)O)cc32)CC1 (configuration not stated) | 0.08 | 
